{"source": "patent US7935703B2", "about": "“Piperazines and piperidines as Mglur5 potentiators” (AstraZeneca AB, priority 2006, dated 2011)"}
{"target": "T1, human mGluR5d (Homo sapiens, UniProt P41594)", "T1 construct": "expressed in transfected cells; host or cells: GHEK cells (human embryonic kidney cells expressing glutamate transporter), stated for the IP3 assay", "T1 sequence (P41594 21-942 isoform P41594-3 limits assumed)": "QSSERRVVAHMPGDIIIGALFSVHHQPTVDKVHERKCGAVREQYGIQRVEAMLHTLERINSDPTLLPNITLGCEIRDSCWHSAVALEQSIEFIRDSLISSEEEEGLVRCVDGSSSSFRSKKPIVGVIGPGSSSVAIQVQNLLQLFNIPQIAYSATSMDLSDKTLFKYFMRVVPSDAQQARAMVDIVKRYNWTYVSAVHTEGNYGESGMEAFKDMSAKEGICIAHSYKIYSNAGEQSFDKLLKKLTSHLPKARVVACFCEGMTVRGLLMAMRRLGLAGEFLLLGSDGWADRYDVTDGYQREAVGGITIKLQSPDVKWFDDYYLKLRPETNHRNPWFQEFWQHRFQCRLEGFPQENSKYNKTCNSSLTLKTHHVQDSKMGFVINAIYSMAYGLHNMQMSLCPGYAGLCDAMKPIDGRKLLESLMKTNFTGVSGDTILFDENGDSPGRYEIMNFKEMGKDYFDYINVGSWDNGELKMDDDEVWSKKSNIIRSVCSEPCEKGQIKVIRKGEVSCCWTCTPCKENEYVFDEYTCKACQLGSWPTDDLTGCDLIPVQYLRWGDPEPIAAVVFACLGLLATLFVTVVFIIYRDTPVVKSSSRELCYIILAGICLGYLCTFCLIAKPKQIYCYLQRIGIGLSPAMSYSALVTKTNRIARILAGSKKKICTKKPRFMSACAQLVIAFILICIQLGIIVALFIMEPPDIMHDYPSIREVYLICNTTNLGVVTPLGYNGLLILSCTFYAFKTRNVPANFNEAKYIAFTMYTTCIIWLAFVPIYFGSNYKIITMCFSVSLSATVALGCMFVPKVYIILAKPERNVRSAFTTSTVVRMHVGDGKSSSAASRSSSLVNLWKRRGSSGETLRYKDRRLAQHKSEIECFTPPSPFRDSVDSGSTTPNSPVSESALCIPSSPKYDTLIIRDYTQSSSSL", "assay": "functional assays for mGluR5 potentiation: [Ca2+]i mobilization (FLIPR), secondary IP3 turnover assay", "type": "cell-based", "conditions": "active in assays described herein; which assay (FLIPR or IP3) is not stated", "description": "The pharmacological properties of the compounds of the invention can be analyzed using standard assays for functional activity. Examples of glutamate receptor assays are well known in the art as described in for example Aramori et al., Neuron 8:757 (1992), Tanabe et al., Neuron 8:169 (1992), Miller et al., J Neuroscience 15: 6103 (1995), Balazs, et al., J. Neurochemistry 69:151 (1997). The methodology described in these publications is incorporated herein by reference. Conveniently, the compounds of the invention can be studied by means of an assay that measures the mobilization of intracellular calcium, [Ca^2+]i in cells expressing mGluR5.\nIntracellular calcium mobilization was measured by detecting changes in fluorescence of cells loaded with the fluorescent indicator fluo-3. Fluorescent signals were measured using the FLIPR system (Molecular Devices). A two addition experiment was used that could detect compounds that either activate or antagonize the receptor.\nFor FLIPR analysis, cells expressing human mGluR5d were seeded on collagen coated clear bottom 96-well plates with black sides and analysis of [Ca^2+]i mobilization was done 24 hours after seeding.\nFLIPR experiments were performed using a laser setting of 0.800 W and a 0.4 second CCD camera shutter speed. Each FLIPR experiment was initiated with 160 μL of buffer present in each well of the cell plate. After each addition of the compound, the fluorescence signal was sampled 50 times at 1 second intervals followed by 3 samples at 5 second intervals. Responses were measured as the peak height of the response within the sample period.\nEC50 and IC50 determinations were made from data obtained from 8-point concentration response curves (CRC) performed in duplicate. Agonist CRC were generated by scaling all responses to the maximal response observed for the plate. Antagonist block of the agonist challenge was normalized to the average response of the agonist challenge in 14 control wells on the same plate.\nWe have validated a secondary functional assay for mGluR5d based on Inositol Phosphate (IP3) turnover. IP3 accumulation is measured as an index of receptor mediated phospholipase C turnover. GHEK cells stably expressing the human mGluR5d receptors were incubated with [3H] myo-inositol overnight, washed three times in HEPES buffered saline and pre-incubated for 10 minutes with 10 mM LiCl. Compounds (agonists) were added and incubated for 30 minutes at 37° C. Antagonist and potentiator activity was determined by pre-incubating test compounds for 15 minutes, then incubating in the presence of glutamate or DHPG (EC80 for antagonists, EC30 for potentiators) for 30 minutes. Reactions were terminated by the addition of perchloric acid (5%). […]", "units": {"EC50": "nM"}}
{"smiles": "O=C(COCc1ccccc1)N1CCN(c2ccccc2)CC1", "note": "[Compound 12, 2-Benzyloxy-1-(4-phenyl-piperazin-1-yl)-ethanone]", "EC50": 600}
{"smiles": "N#Cc1cccnc1N1CCN(C(=O)COCc2ccccc2)CC1", "note": "[Compound 23, 2-[4-(2-Benzyloxy-acetyl)-piperazin-1-yl]-nicotinonitrile]", "EC50": 5100}
{"smiles": "O=C(COCc1ccc(F)cc1)N1CCN(c2ccc(F)cc2F)CC1", "note": "[Compound 48, 1-[4-(2,4-Difluoro-phenyl)-piperazin-1-yl]-2-(4-fluoro-benzyloxy)-ethanone]", "EC50": 400}
{"smiles": "C[C@@H]1CN(c2ccc(Cl)cc2Cl)CCN1C(=O)COCc1ccncc1", "note": "[Compound 58, 1-[(R)-4-(2,4-Dichloro-phenyl)-2-methyl-piperazin-1-yl]-2-(pyridin-4-ylmethoxy)-ethanone]", "EC50": 2300}
